Experimental findings from PubChem BioAssay AID2060333 (Molecular Pharmacology Branch, DTP, NCI, 2025) are described below.

“And” between values parts separate entries of the source, which are not always exact repeats. Equal values may be shown once. A value given as a limit tells only on which side of the number the result lay.

The test deals with 845751-090-R-J2-PDC tumor spheroid viability. As to the kind of experiment: Anticancer human tumor 845751-090-R-J2-PDC patient-derived head and neck squamous carcinoma cell line growth inhibition [IpAb]. As to conditions: spheroids with HUVEC and MSC; for viability, T/C: stronger effect = lower value. In outline:
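Multi-cell spheroids of 60% tumour cells, 25% HUVEC and 15% MSC in ultra-low-attachment U-bottom wells, treated with agents combined with ipatasertib or abemaciclib. Half-log ranges top out near clinical Cmax, or 10 microM when Cmax is unknown.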

The mark [1] stands for this setting: curve of first compound, second compound 0.1 µM.
The mark [2] stands for this setting: curve of first compound, second compound 0.316 µM.
Where [3] appears, read: curve of first compound, second compound 1 µM.
The mark [4] stands for this setting: second compound 0.1 µM, first compound 0.0316 µM.
[5] abbreviates: second compound 0.1 µM, first compound 0.1 µM.
Where [6] appears, read: second compound 0.1 µM, first compound 0.316 µM.
Where [7] appears, read: second compound 0.1 µM, first compound 1 µM.
Where [8] appears, read: second compound 0.1 µM, first compound 3.16 µM.
The mark [9] stands for this setting: second compound 0.1 µM, first compound 10 µM.
Where [10] appears, read: second compound 0.316 µM, first compound 0.0316 µM.
The mark [11] stands for this setting: second compound 0.316 µM, first compound 0.1 µM.
[12] abbreviates: second compound 0.316 µM, first compound 0.316 µM.
[13] abbreviates: second compound 0.316 µM, first compound 1 µM.
The mark [14] stands for this setting: second compound 0.316 µM, first compound 3.16 µM.
[15] abbreviates: second compound 0.316 µM, first compound 10 µM.
Setting [16] is: second compound 1 µM, first compound 0.0316 µM.
Setting [17] is: second compound 1 µM, first compound 0.1 µM.
[18] abbreviates: second compound 1 µM, first compound 0.316 µM.
Where [19] appears, read: second compound 1 µM, first compound 1 µM.
Where [20] appears, read: second compound 1 µM, first compound 3.16 µM.
[21] abbreviates: second compound 1 µM, first compound 10 µM.
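Also: spheroids exposed to compounds for 7 days before readout.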
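For viability, T/C in this document: CTG3D luminescence normalised so that 100% = DMSO vehicle control.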

Turning to `COc1c(OCCCN2CCOCC2)ccc2c3n(c(=NC(=O)c4cnc(N)nc4)nc12)CCN3`, the viability, T/C (commonly the result in the treated group divided by that in the control group, in per cent) runs as follows: (compound 0.00316 µM) 85.1% and 76.3%; (compound 0.01 µM) 62.6% and 60.3%; (compound 0.0316 µM) 36.9% and 35.4%; (compound 0.1 µM) 19.8% and 22.2%; (compound 0.316 µM) 13.8% and 16.1%; (compound 1 µM) 4.09% and 9.06%. For the same compound, the IC50 (as a rule, the point on the concentration scale where inhibition reaches its midpoint) (curve of compound) is 0.0176 µM and 0.0161 µM.
For `CC1(C)CCC(CN2CCN(c3ccc(C(=O)NS(=O)(=O)c4ccc(NCC5CCOCC5)c([N+](=O)[O-])c4)c(Oc4cnc5[nH]ccc5c4)c3)CC2)=C(c2ccc(Cl)cc2)C1` + CC(C)NCC(C(=O)N1CCN(c2ncnc3c2C(C)CC3O)CC1)c1ccc(Cl)cc1, the IC50 is, setting by setting: under setting [1], 5.77 µM; under setting [2], under 0.0316 µM; under setting [3], under 0.0316 µM; (curve of first compound, second compound 3.16 µM) under 0.0316 µM; (curve of first compound, second compound 10 µM) under 0.0316 µM. The viability, T/C is 65.2% under setting [4]; 83% under setting [5]; 81.9% under setting [6]; 67% under setting [7]; 111% under setting [8]; 20.9% under setting [9]. Further, the viability, T/C runs as follows: under setting [10], 30.5%; under setting [11], 38.3%; under setting [12], 53.5%; under setting [13], 44%; under setting [14], 47%; under setting [15], 14.4%. The viability, T/C under setting [16] was 28.6%; the viability, T/C under setting [17] is 27.6%; the viability, T/C under setting [18] is 54.8%; the viability, T/C under setting [19] was 33.1%; the viability, T/C under setting [20] is 33.6%; the viability, T/C under setting [21] is 7.48%. Also, the viability, T/C reads like this: (second compound 3.16 µM, first compound 0.0316 µM) 26.7%; (second compound 3.16 µM, first compound 0.1 µM) 27.3%; (second compound 3.16 µM, first compound 0.316 µM) 31.5%; (second compound 3.16 µM, first compound 1 µM) 29.5%; (second compound 3.16 µM, first compound 3.16 µM) 42.4%; (second compound 3.16 µM, first compound 10 µM) 5.79%. The viability, T/C (second compound 10 µM, first compound 0.0316 µM) is 13.1%; the viability, T/C (second compound 10 µM, first compound 0.1 µM) is 14.6%; the viability, T/C (second compound 10 µM, first compound 0.316 µM) is 38.2%; the viability, T/C (second compound 10 µM, first compound 1 µM) is 15.5%; the viability, T/C (second compound 10 µM, first compound 3.16 µM) was 22%; the viability, T/C (second compound 10 µM, first compound 10 µM) is 3.52%.
With `CC1(C)CCC(CN2CCN(c3ccc(C(=O)NS(=O)(=O)c4ccc(NCC5CCOCC5)c([N+](=O)[O-])c4)c(Oc4cnc5[nH]ccc5c4)c3)CC2)=C(c2ccc(Cl)cc2)C1` + CCN1CCN(Cc2ccc(Nc3ncc(F)c(-c4cc(F)c5nc(C)n(C(C)C)c5c4)n3)nc2)CC1, the half-inhibitory concentration (IC50) was found to be 7.51 µM (curve of first compound, second compound 0.01 µM); 7.03 µM (curve of first compound, second compound 0.0316 µM); 6.37 µM under setting [1]; 6.41 µM under setting [2]; 6.75 µM under setting [3]. In addition, the viability, T/C is 104% (second compound 0.01 µM, first compound 0.0316 µM); 119% (second compound 0.01 µM, first compound 0.1 µM); 103% (second compound 0.01 µM, first compound 0.316 µM); 91.3% (second compound 0.01 µM, first compound 1 µM); 138% (second compound 0.01 µM, first compound 3.16 µM); 29.8% (second compound 0.01 µM, first compound 10 µM). The viability, T/C reads like this: (second compound 0.0316 µM, first compound 0.0316 µM) 136%; (second compound 0.0316 µM, first compound 0.1 µM) 90.5%; (second compound 0.0316 µM, first compound 0.316 µM) 80.8%; (second compound 0.0316 µM, first compound 1 µM) 93.6%; (second compound 0.0316 µM, first compound 3.16 µM) 137%; (second compound 0.0316 µM, first compound 10 µM) 24.4%. The viability, T/C is 75% under setting [4]; 72.2% under setting [5]; 94.6% under setting [6]; 104% under setting [7]; 117% under setting [8]; 22.7% under setting [9]. The viability, T/C is 74.6% under setting [10]; 108% under setting [11]; 92.3% under setting [12]; 85.3% under setting [13]; 115% under setting [14]; 21.6% under setting [15]. Further, the viability, T/C is 106% under setting [16]; 107% under setting [17]; 102% under setting [18]; 115% under setting [19]; 123% under setting [20]; 18.5% under setting [21].
Turning to `CCCS(=O)(=O)Nc1ccc(F)c(C(=O)c2c[nH]c3ncc(-c4ccc(Cl)cc4)cc23)c1F`, the viability, T/C by setting is: (compound 0.0316 µM) 134% and 78.5%; (compound 0.1 µM) 120% and 76.5%; (compound 0.316 µM) 111% and 63%; (compound 1 µM) 84.5% and 45.3%; (compound 3.16 µM) 46.7% and 33.6%; (compound 10 µM) 50.4% and 29.4%. The IC50 (curve of compound) was 5.55 µM and 0.737 µM.
Take `Cn1cnc2c(F)c(Nc3ccc(Br)cc3Cl)c(C(=O)NOCCO)cc21`: the viability, T/C is 107% and 165% (compound 0.00949 µM); 94.5% and 174% (compound 0.03 µM); 75% and 136% (compound 0.0949 µM); 82.8% and 125% (compound 0.3 µM); 80.4% and 122% (compound 0.949 µM); 65.8% and 67.1% (compound 3 µM). For the same compound, the IC50 (curve of compound) was over 3 µM.
With `C=CC(=O)N1CCN(c2nc(=O)n(-c3c(C)ccnc3C(C)C)c3nc(-c4c(O)cccc4F)c(F)cc23)C(C)C1` (stereo not drawn), the viability, T/C is 84.1% and 78.2% (compound 0.0316 µM); 88.8% and 74.3% (compound 0.1 µM); 98.2% and 105% (compound 0.316 µM); 95.9% and 88.2% (compound 1 µM); 82.6% and 77.3% (compound 3.16 µM); 30.3% and 68.4% (compound 10 µM). The 50% inhibitory concentration (IC50) (curve of compound) is 6.49 µM and > 10 µM.
